Tests used:
MET [1] = molecular target: T1, MET (Homo sapiens, UniProt P08581); assay: Test B: Inhibition of autophosphorylation of MET; ELISA technique (pppY1230,1234,1235) in MKN45 cells; assay type: cell-based; design: Inoculated MKN45 cells in 96-well plates; endogenous in cells; host or cells: MKN45 cells; conditions: 1 hour treatment, phosphoMET ELISA
Method: B) Test B: Inhibition of autophosphorylation of MET; ELISA technique (pppY1230,1234,1235)
a) Cell lysates: Inoculated MKN45 cells in 96-well plates (Cell coat BD polylysine) to a rate of 20 000 cells/well in 200 μl in RPMI medium+10% FCS+1% L-glutamine. Leave to adhere for 24 hours in an incubator.
The cells are treated the day after inoculation with the products at six concentrations in duplicate for 1 hour. At least three control wells are treated with the same amount of final DMSO.
Product dilution: Stock at 10 mM in pure DMSO—range from 10 mM to 30 μM with an increment of 3 in pure DMSO—Intermediate 50-fold dilutions in the culture medium, followed by removal of 10 μl added directly to the cells (200 μl): final range from 10 000 to 30 nM.
At the end of incubation, delicately remove the supernatant and rinse with 200 μl of PBS. Next, place 100 μl of lysis buffer directly in the wells on ice and incubate at 4° C. for 30 minutes. Lysis buffer: 10 mM Tris-HCl pH 7.4, 100 mM NaCl, 1 mM EDTA, 1 mM EGTA, 1% Triton X-100, 10% glycerol, 0.1% SDS, 0.5% deoxycholate, 20 mM NaF, 2 mM Na3VO4, 1 mM PMSF and anti-protease cocktail.
The 100 μl of lysates are transferred into a V-bottomed polypropylene plate and ELISA is performed directly or the plate is frozen at −80° C.,
b) ELISA PhosphoMET SicSource Kit KH00281
Add 70 μl of kit dilution buffer+30 μL of cell lysates or 30 μl of lysis buffer for the blanks to each well of the kit plate. Incubate for 2 hours with gentle rocking at room temperature.
Rinse the wells four times with 400 μl of kit washing buffer. Incubate with 100 μl of anti-phospho MET antibody for 1 hour at room temperature.
Rinse the wells four times with 400 μL of kit washing buffer. Incubate with 100 μl of anti-rabbit HRP antibody for 30 minutes at room temperature (except for the wells with chromogen alone).
Rinse the wells four times with 400 μl of kit washing buffer. Introduce 100 μl of chromogen and incubate for 30 minutes in the dark at room temperature.
Stop the reaction with 100 μl of stop solution. Take the reading without delay, at […] 0.1 second on a Wallac Victor plate reader.
Target sequence in this assay (P08581 25-1390): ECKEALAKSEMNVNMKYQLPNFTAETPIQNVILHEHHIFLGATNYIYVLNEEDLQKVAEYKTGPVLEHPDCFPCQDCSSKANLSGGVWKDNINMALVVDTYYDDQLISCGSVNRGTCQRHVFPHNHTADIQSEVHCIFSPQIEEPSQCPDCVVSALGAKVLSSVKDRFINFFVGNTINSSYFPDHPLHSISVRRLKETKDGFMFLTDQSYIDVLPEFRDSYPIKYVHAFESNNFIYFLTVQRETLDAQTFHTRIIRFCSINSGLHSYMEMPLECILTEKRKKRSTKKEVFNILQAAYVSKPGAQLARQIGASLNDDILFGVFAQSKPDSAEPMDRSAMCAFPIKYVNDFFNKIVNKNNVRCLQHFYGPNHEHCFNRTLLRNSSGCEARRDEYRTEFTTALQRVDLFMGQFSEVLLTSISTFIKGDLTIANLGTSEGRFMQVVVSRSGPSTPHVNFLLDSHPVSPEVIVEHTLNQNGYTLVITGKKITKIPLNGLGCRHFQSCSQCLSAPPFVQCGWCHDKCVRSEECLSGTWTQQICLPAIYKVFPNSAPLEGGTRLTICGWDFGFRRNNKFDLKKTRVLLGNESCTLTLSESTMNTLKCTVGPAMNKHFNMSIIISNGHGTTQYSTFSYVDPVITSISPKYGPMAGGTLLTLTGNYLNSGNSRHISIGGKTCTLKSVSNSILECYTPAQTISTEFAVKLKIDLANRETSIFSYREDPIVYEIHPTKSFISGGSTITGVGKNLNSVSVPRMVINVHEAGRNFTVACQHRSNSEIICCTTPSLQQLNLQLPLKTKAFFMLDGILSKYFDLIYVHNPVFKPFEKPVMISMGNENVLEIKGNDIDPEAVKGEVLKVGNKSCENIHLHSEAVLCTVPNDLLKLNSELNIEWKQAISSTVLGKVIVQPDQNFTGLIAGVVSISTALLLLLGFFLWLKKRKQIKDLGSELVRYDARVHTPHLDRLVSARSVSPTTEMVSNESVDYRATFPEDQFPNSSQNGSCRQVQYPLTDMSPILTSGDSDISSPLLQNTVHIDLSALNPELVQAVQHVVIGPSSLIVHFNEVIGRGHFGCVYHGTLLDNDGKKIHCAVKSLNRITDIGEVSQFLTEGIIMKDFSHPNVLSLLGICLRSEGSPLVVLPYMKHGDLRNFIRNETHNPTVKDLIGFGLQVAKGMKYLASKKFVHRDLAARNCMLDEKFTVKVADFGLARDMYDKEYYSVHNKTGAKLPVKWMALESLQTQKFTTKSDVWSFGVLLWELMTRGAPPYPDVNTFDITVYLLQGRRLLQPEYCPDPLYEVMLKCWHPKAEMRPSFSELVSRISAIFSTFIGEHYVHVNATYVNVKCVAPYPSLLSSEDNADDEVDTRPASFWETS

MET [2] = molecular target: T1, MET; assay: Test A: HTRF MET test in 96-well format; assay type: biochemical; design: The recombinant DNA His-Tev-MET (956-1390) in pFastBac; His (N, cleaved yes); TEV cleavage site (N); made in house; host or cells: SF21 insect cells (baculovirus, pFastBac); conditions: ATP 10 μM, MET 5 nM
Method: The recombinant DNA His-Tev-MET (956-1390) in pFastBac (invitrogen) is transfected into insect cells and, after several viral amplification steps, the final baculovirus stock is tested for expression of the protein of interest.
For the production of autophosphorylated protein, the preceding fractions are incubated for 1 hour at room temperature after addition of ATP 2 mM, MgCl2 2 mM, and Na3VO4 4 mM. After stopping the reaction with 5 mM of EDTA, the reaction mixture is injected onto a HiPrep desalting column (GE HealthCare) pre-equilibrated with buffer A+Na3VO4 4 mM, and the fractions containing the protein of interest (SDS PAGE analysis) are pooled and stored at −80° C. The degree of phosphorylation is checked by mass spectrometry (LC-MS) and by peptide mapping.
A) Test A: HTRF MET test in 96-well format
In a final volume of 50 μl of enzymatic reaction, MET 5 nM final is incubated in the presence of the test molecule (for a final concentration range of 0.17 nM to 10 μM, DMSO 3% final) in MOPS 10 mM pH 7.4, DTT 1 mM, 0.01% Tween 20 buffer. The reaction is initiated with the substrate solution to obtain final concentrations of poly-(GAT) 1 μg/ml, ATP 10 μM and MgCl2 5 mM. After incubation for 10 minutes at room temperature, the reaction is stopped with a mix of 30 μl to obtain a final solution of Hepes 50 mM pH 7.5, potassium fluoride 500 mM, 0.1% BSA and EDTA 133 mM in the presence of 80 ng of streptavidin 61SAXLB Cis-Bio Int. and 18 ng of anti-phosphotyrosine Mab PT66-Europium Cryptate per well. After incubation for 2 hours at room temperature, the reading is taken at two wavelengths, 620 nm and 665 nm, on a reader for the TRACE/HTRF technique and the percentage of inhibition is calculated from the 665/620 ratios.
Target sequence in this assay (P08581 956-1390): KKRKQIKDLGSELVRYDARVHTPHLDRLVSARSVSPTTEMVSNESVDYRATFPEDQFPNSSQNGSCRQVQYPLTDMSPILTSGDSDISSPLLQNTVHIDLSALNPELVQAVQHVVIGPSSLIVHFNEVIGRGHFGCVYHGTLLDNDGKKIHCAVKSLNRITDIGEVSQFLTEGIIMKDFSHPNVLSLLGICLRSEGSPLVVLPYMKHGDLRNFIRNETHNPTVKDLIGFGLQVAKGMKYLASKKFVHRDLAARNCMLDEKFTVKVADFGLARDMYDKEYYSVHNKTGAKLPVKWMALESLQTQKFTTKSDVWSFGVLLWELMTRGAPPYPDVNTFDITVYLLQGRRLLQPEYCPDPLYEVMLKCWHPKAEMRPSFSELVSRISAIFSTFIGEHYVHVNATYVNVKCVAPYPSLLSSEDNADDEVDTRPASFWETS

[3] = test system: HCT116 cells and MKN45 cells; assay: Test C: Measurement of the cell proliferation via a 14C-thymidine pulse; assay type: cell-based; conditions: 14C-thymidine incorporation, 96 hours of treatment; cell line (HCT116 or MKN45) not stated
Method: C) Test C: Measurement of the Cell Proliferation Via a 14C-Thymidine Pulse
The cells are inoculated in Cytostar 96-well plates in 180 μl for 4 hours at 37° C. and 5% CO2: HCT116 cells at a rate of 2500 cells per well in DMEM medium+10% foetal calf serum+1% L-Glutamine and MKN45 cells at a rate of 7500 cells per well in RPMI medium+10% foetal calf serum+1% L-Glutamine. After these 4 hours of incubation, the products are added in 10 μl as a 20-fold concentrated solution according to the dilution method cited for ELISA. The products are tested at 10 concentrations in duplicate from 10 000 nM to 0.3 nM with an increment of 3.
After 72 hours of treatment, add 10 μl of 14C-thymidine at 10 μCi/ml to obtain 0.1 μCi per well. The incorporation of 14C-thymidine is measured on a Micro-Beta machine (Perkin-Elmer) after 24 hours of pulse and 96 hours of treatment.
All the test steps are automated on BIOMEK 2000 or TECAN stations.

Row | IC50 (MET [1]) | IC50 (MET [2]) | IC50 [3] | SMILES
1 | < 0.1 µM | < 0.1 µM | < 1 µM | O=C(NCCN1CCOCC1)Nc1nc2cc(F)c(Sc3nnc4ccc(NC5CCCCC5)nn34)cc2s1 [Example 6, 1-(6-{[6-(cyclohexylamino)[1,2,4]triazolo[4,3-b]pyridazin-3-yl]sulfanyl}-5-fluoro-1,3-benzothiazol-2-yl)-3-[2-(morpholin-4-yl)ethyl]urea]
2 | < 0.1 µM | < 0.1 µM | < 1 µM | O=C(NCCN1CCOCC1)Nc1nc2cc(F)c(Sc3nnc4ccc(NC5CC5)nn34)cc2s1 [Example 5, 1-(6-{[6-(cyclopropylamino)[1,2,4]triazolo[4,3-b]pyridazin-3-yl]sulfanyl}-5-fluoro-1,3-benzothiazol-2-yl)-3-[2-(morpholin-4-yl)ethyl]urea]
3 | < 0.5 µM | < 0.5 µM | – | O=C(CN1CCN(C2CC2)CC1)Nc1nc2cc(F)c(Sc3nnc4ccc(OC5COC5)nn34)cc2s1 [Example 11, 2-(4-cyclopropylpiperazin-1-yl)-N-(5-fluoro-6-{[6-(oxetan-3-yl-oxy)[1,2,4]triazolo[4,3-b]pyridazin-3-yl]sulfanyl}-1,3-benzothiazol-2-yl)acetamide]
4 | < 0.1 µM | < 0.1 µM | < 1 µM | O=C(NCCN1CCOCC1)Nc1nc2cc(F)c(Sc3nnc4ccc(-c5ccc(F)cc5)nn34)cc2s1 [Example 4, 1-(5-fluoro-6-{[6-(4-fluorophenyl)[1,2,4]triazolo[4,3-b]pyridazin-3-yl]sulfanyl}-1,3-benzothiazol-2-yl)-3-[2-(morpholin-4-yl)ethyl]urea]
5 | < 0.1 µM | < 0.1 µM | < 1 µM | O=C(CN1CCN(C2CC2)CC1)Nc1nc2cc(F)c(Sc3nnc4ccc(OC5CCC5)nn34)cc2s1 [Example 8, N-(6-{[6-(cyclobutyloxy)[1,2,4]triazolo[4,3-b]pyridazin-3-yl]sulfanyl}-5-fluoro-1,3-benzothiazol-2-yl)-2-(4-cyclopropylpiperazin-1-yl)acetamide]
6 | < 0.1 µM | < 0.1 µM | < 1 µM | Nc1nc2cc(F)c(Sc3nnc4ccc(-c5ccc(F)cc5)nn34)cc2s1 [Example 3, 5-fluoro-6-{[6-(4-fluorophenyl)[1,2,4]triazolo[4,3-b]pyridazin-3-yl]sulfanyl}-1,3-benzothiazol-2-amine]
7 | < 0.1 µM | < 0.1 µM | < 1 µM | O=C(NCCN1CCOCC1)Nc1nc2cc(F)c(Sc3nnc4ccc(OC5CCCCC5)nn34)cc2s1 [Example 1, 1-(6-{[6-(Cyclohexyloxy)[1,2,4]triazolo[4,3-b]pyridazin-3-yl]sulfanyl}-5-fluoro-1,3-benzothiazol-2-yl)-3-[2-(morpholin-4-yl)ethyl]urea]
8 | < 0.1 µM | < 0.1 µM | < 1 µM | CCOc1ccc2nnc(Sc3cc4sc(NC(=O)CN5CCN(C6CC6)CC5)nc4cc3F)n2n1 [Example 7, 2-(4-cyclopropylpiperazin-1-yl)-N-{6-[(6-ethoxy[1,2,4]triazolo[4,3-b]pyridazin-3-yl)sulfanyl]-5-fluoro-1,3-benzothiazol-2-yl}acetamide]
9 | < 0.1 µM | < 0.1 µM | < 1 µM | CCN1CCN(CC(=O)Nc2nc3cc(F)c(Sc4nnc5ccc(OC6CCC6)nn45)cc3s2)CC1 [Example 10, N-(6-{[6-(Cyclobutyloxy)[1,2,4]triazolo[4,3-b]pyridazin-3-yl]sulfanyl}-5-fluoro-1,3-benzothiazol-2-yl)-2-(4-ethylpiperazin-1-yl)acetamide]
10 | < 0.1 µM | < 0.1 µM | < 1 µM | CC(C)(C)OC(=O)Nc1nc2cc(F)c(Sc3nnc4ccc(-c5ccc(F)cc5)nn34)cc2s1 [Example 2, 2-Methylpropan-2-yl (5-fluoro-6-{[6-(4-fluorophenyl)[1,2,4]triazolo[4,3-b]pyridazin-3-yl]sulfanyl}-1,3-benzothiazol-2-yl)carbamate]
11 | < 0.1 µM | < 0.1 µM | < 1 µM | CCOc1ccc2nnc(Sc3cc4sc(NC(=O)CN5CCN(CC)CC5)nc4cc3F)n2n1 [Example 9, N-{6-[(6-ethoxy[1,2,4]triazolo[4,3-b]pyridazin-3-yl)sulfanyl]-5-fluoro-1,3-benzothiazol-2-yl}-2-(4-ethylpiperazin-1-yl)acetamide]

Source: patent US20120165326A1, “DERIVATIVES OF 6-(6-SUBSTITUTED-TRIAZOLOPYRIDAZINE-SULFANYL) 5-FLUORO BENZOTHIAZOLES AND 5-FLUORO BENZIMIDAZOLES, PREPARATION THEREOF, USE THEREOF AS DRUGS, AND USE THEREOF AS MET INHIBITORS” (SANOFI, priority 2009, published 2012)
